No end group written: not given here.

For one assay, the system named is pigs. Description: Left ventricurogram in pigs, ejection fraction. It is filed as in vivo, pig. The protocol: In another study, left ventricurogram was performed in pigs (n=5) at three time points: (1) before occlusion of left anterior descending artery by balloon catheter (pre ischemia); (2) immediately after reperfusion with 2.5 μM/10 mL of δV1-1 (post ischemia); and (3) before sacrifice five days later (5 days post ischemia), using 6 Fr. of pig-tail catheter. LVG was recorded by 2 views, right anterior oblique and left anterior oblique. Ejection fraction (EF), the percent of blood ejected in a beat, during maximum contraction, of the total maximum present in the left ventricle, was analyzed by the software, Plus Plus (Sanders Data Systems), and the averages of two views were evaluated. Ejection fraction is a measure of how well the heart is functioning, with a higher ejection fraction indicative of a better functioning heart.

Another assay relates to whole rat hearts. Briefly: Ex vivo whole hearts, peptide during reperfusion after 20 min global ischemia, functional recovery. How it is done:
Another study was performed to determine if the peptides could be delivered to an intact organ to provide protection after an ischemic insult. In this study, as described in Example 4, the rat heart model described above was used and the hemodynamic parameters were measured during the 20 minutes of global ischemia and the […]. During the reperfusion only, δV1-1 was delivered at a concentration of 500 nM.
In a similar study, five pairs of rats were treated as described in Example 4, where the ex vivo hearts were subjected to 20 minutes of ischemia and 30 minutes of reperfusion. During the first 20 minutes of reperfusion, 500 nM of δV1-1 or vehicle control was administered.
Rat hearts were isolated as described in Example 3. The left ventricular pressure and its real-time derivative (dP/dt) were monitored via a latex balloon placed in the ventricular cavity and at a constant heart rate by pacing (3.3 Hz) and at a constant coronary flow (10 ml/min.). The hearts were subjected to 20 minutes of ischemia and 30 minutes of re-perfusion. During the first 20 minutes of reperfusion, 500 nM of δV1-1 or vehicle control was delivered.

A further assay has as its system Sprague-Dawley rats. Briefly: Rat cerebral ischemia (stroke) model, middle cerebral artery occlusion, infarct area. It counts as in vivo. The conditions noted are these: Tat-conjugated δV1-1 into carotid artery prior to ischemia and at end of 2 hour occlusion, final blood concentration 1 μM; brains 24 hrs later. The protocol:
In another study performed in support of the invention, the ability of δV1-1 peptide (SEQ ID NO:4) to inhibit damage to the brain as a result of stroke was examined. In this study, described in Example 6, a rat cerebral ischemia model was used. Ischemia was induced using an intraluminal suture to occlude the ostium of the middle cerebral artery. δV1-1 conjugated to Tat peptide (SEQ ID NO:9) or the Tat peptide alone were injected into the carotid artery before and after a two hour occlusion period. The brain from each animal was harvested 24 hours later, stained, and examined.
Adult male Sprague-Dawley rats weighing between 280-320 g were used. Animals were maintained under isofluorane anesthesia during all surgical procedures. Physiological parameters were monitored and maintained in the normal range. Rectal temperature was also measured. At the completion of the experiment, the animals were euthanized with a barbiturate overdose and prepared for histological analysis.
Ischemia was induced using an occluding intraluminal suture. […]
Animals were perfused with heparinized saline and brains removed and sectioned into 2 mm thick slices. […] Areas of infarction (white) were then measured using an image analysis system previously described (Yenari, M. A. et al., 1998; Maier, C. et al., 1998).

Setting [1] is: 500 nM during reperfusion after 20 minutes global ischemia.

Take “SFNSYELGSL (also: conjugated to Antennapedia or Tat carrier; listed as Rattus norvegicus) [δV1-1, tested conjugated to Antennapedia or Tat carrier]”: in the assay with pigs (reperfusion with 2.5 μM/10 mL of δV1-1, post ischemia), the “decrease in ejection fraction compared with scrambled peptide control” value was “less pronounced decrease”. In the assay on pigs (reperfusion with 2.5 μM/10 mL of δV1-1, 5 days post ischemia), the “ejection fraction at five days post ischemia” value is “on par with that measured prior to ischemia and significantly higher than the untreated animals”. Further, the “end diastolic pressure (EDP)” value with whole rat hearts (500 nM during first 20 minutes of reperfusion, 5-30 minutes after reperfusion) is recorded as “approximately 60 mmHg”. Also, in the assay with whole rat hearts (setting [1]), the “coronary perfusion pressure (PP)” value is reported as “reduced” and the “elevated LVP end diastolic pressure” value is “reduced”. Moreover, in the assay with whole rat hearts (500 nM during reperfusion after 20 minutes global ischemia, not shown), the “reduction in creatine phosphokinase release compared with vehicle control” value is ~50%. For the same sequence, the “perfusion pressure (PP) relative to hearts left untreated” value in the assay on whole rat hearts (after ischemia and after treatment with 500 nM δV1-1) is on record as “about 75%”. Further, the brain infarct area result with Sprague-Dawley rats is “significant reduction”.
